In the assay the target is Glutathionylspermidine synthetase/amidase (Escherichia coli) (UniProt P0AES0). In words: Inhibition of Glutathionylspermidine synthetase from Escherichia coli, value taken from literature.
Sequence of Glutathionylspermidine synthetase/amidase (Escherichia coli) (P0AES0 whole entry, looked up): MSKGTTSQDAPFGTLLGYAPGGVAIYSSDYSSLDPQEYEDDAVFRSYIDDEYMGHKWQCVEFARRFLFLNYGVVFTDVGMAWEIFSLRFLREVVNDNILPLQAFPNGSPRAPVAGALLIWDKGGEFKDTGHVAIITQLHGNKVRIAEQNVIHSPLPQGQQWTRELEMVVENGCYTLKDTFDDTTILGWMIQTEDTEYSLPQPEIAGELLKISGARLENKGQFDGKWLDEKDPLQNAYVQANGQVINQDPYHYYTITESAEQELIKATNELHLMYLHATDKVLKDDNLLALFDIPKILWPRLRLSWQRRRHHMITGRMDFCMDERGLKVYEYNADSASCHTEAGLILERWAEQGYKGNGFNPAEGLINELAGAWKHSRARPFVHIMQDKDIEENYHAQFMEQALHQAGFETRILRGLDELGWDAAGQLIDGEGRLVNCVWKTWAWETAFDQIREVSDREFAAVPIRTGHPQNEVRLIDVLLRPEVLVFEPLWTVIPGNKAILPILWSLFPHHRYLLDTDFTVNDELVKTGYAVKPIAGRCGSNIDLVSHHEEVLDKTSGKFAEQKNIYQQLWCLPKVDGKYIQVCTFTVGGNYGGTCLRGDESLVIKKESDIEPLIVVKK

What is called Ki is a dissociation constant, usually derived from enzyme kinetics or from competition with a known ligand. Lower therefore signals higher affinity. Compound `C[C@H](NC(=O)CC[C@H](N)C(=O)O)C(=O)NCP(=O)(O)OCCCNCCCCN` [2-Amino-4-[1-({[3-(4-amino-butylamino)-propoxy]-hydroxy-phosphorylmethyl}-carbamoyl)-ethylcarbamoyl]-butyric acid] displayed a Ki of 14 µM.

The values are drawn from BindingDB's records for doi:10.1021/jm970414b (University of Michigan, 1997).
